Measurements: US8722849B2, “Polypeptides” (Novo Nordisk A/S, priority 2011, dated 2014)
Starred links: 1 amine or outer side, 2 acyl side, 3 side chain; linkers in the order of their positions; H or OH if unused. Positions of bridges follow the written chain, without caps; N, C: chain ends. Residues, ends and D or L forms follow the SMILES beside them. *: point of attachment. C20 diacid = O=C(O)CCCCCCCCCCCCCCCCCCC(=O)*; C18 diacid = O=C(O)CCCCCCCCCCCCCCCCC(=O)*; γGlu = O=C(O)[C@H](CCC(=O)[*:2])N[*:1]

What was measured:
Assay type in all cases: cell-based
[1] = biological target: T1, human amylin receptor (amylin 3(a) receptor: human calcitonin receptor + RAMP-3) (Homo sapiens, UniProt O60896+P30988); experiment: Assay (II)a functional CRE-luciferase assay, human amylin receptor; details: Table 2; BHK amylin 3(a)-receptor/CRE-luc cells
T1 construct: expressed in transfected cells; host or cells: BHK570
T1 sequence (P30988 25-474): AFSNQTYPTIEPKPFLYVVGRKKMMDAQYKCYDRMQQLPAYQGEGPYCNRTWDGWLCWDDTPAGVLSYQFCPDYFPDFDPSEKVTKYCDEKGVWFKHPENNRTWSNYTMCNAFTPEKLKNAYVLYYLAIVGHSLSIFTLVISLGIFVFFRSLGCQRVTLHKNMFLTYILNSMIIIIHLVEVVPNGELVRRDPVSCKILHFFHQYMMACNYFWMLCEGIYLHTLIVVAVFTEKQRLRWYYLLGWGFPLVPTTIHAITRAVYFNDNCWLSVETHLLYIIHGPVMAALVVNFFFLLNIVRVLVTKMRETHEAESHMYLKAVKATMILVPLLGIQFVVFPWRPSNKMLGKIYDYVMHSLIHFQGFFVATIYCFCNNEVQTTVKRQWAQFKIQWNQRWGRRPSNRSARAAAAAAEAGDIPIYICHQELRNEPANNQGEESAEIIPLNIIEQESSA
T1 sequence (O60896 24-148 partner): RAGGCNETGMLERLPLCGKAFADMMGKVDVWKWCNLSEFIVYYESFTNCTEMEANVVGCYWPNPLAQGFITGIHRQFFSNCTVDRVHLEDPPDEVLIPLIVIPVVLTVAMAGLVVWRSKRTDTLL

[2] = biological target: T2, rat calcitonin (a) receptor (Rattus norvegicus, UniProt P32214); experiment: Assay (II)b functional cAMP FlashPlate assay, rat calcitonin receptor; details: Table 11; read-out: CTa receptor rat EC50
T2 construct: expressed in transfected cells; host or cells: BHK tk'ts 13
T2 sequence (P32214 25-479 isoform P32214-2 limits assumed): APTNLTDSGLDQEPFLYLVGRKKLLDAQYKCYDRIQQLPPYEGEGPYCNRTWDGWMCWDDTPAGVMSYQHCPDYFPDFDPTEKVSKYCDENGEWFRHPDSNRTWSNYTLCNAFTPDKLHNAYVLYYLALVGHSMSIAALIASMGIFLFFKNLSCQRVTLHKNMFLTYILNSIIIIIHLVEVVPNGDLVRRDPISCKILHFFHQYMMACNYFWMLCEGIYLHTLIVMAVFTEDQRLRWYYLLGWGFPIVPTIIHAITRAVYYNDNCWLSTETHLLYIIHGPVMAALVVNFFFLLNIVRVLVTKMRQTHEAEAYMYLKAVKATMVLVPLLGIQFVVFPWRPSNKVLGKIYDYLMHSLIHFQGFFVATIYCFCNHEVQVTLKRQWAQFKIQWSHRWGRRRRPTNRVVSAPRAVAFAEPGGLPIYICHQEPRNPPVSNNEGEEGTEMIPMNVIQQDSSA
Outline: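 cAMP accumulation in transiently transfected BHK tk'ts 13 cells, 100.000 cells/well, expressing rat calcitonin(a) receptor or its RAMP3 co-expression form (amylin 3(a)): 30 min stimulation with IBMX, 24 hours post-transfection. Readout by competition of cellular versus radiolabelled cAMP in FlashPlates, scintillation counted after 3 h.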

[3] = biological target: T3, human calcitonin receptor (Homo sapiens, UniProt P30988); experiment: Assay (II)a functional CRE-luciferase assay, human calcitonin receptor; details: Table 7; human calcitonin (CTa) receptor
T3 construct: expressed in transfected cells; host or cells: BHK570
T3 sequence (P30988 25-474): T1 sequence (P30988 25-474)

Row | Compound | EC50 [1] | EC50 [2] | EC50 [3]
1 | CC[C@H](C)[C@H](NC(=O)[C@@H]1CCCN1C(=O)CNC(=O)[C@H](Cc1ccccc1)NC(=O)[C@H](CC(N)=O)NC(=O)[C@H](CC(N)=O)NC(=O)[C@H](CO)NC(=O)[C@H](CO)NC(=O)[C@H](Cc1c[nH]cn1)NC(=O)[C@H](Cc1c[nH]cn1)NC(=O)[C@H](CC(C)C)NC(=O)[C@H](Cc1ccccc1)NC(=O)[C@H](CCC(=O)O)NC(=O)[C@H](C)NC(=O)[C@H](CC(C)C)NC(=O)[C@H](CCCNC(=N)N)NC(=O)[C@H](CCC(N)=O)NC(=O)[C@@H](NC(=O)[C@H](C)NC(=O)[C@@H]1CSSC[C@H](NC(=O)[C@H](CCCCN)NC(=O)[C@H](CCC(=O)O)NC(=O)CC[C@H](NC(=O)CCCCCCCCCCCCCCCCCCC(=O)O)C(=O)O)C(=O)N[C@@H](CC(N)=O)C(=O)N[C@@H]([C@@H](C)O)C(=O)N[C@@H](C)C(=O)N[C@@H]([C@@H](C)O)C(=O)N1)[C@@H](C)O)C(=O)N[C@@H](CC(C)C)C(=O)N1CCC[C@H]1C(=O)N1CCC[C@H]1C(=O)N[C@H](C(=O)N[C@@H](CC(N)=O)C(=O)N[C@H](C(=O)NCC(=O)N[C@@H](CO)C(=O)N[C@@H](Cc1c[nH]cn1)C(=O)N[C@H](C(=O)N[C@@H](Cc1ccc(O)cc1)C(N)=O)[C@@H](C)O)C(C)C)[C@@H](C)O [Example 56, N-alpha-[(S)-4-Carboxy-4-(19-carboxynonadecanoylamino)butyryl]-Glu-[Glu14,His17,His35]-pramlintide] ({C20 diacid-γGlu}-EKCNTATCATQRLAEFLHHSSNNFGPILPPTNVGSHTY-NH2; disulfide 3-8 (inferred)) | 0.299 nM | 4.97 nM | 0.352 nM
2 | CC[C@H](C)[C@H](NC(=O)[C@@H]1CCCN1C(=O)CNC(=O)[C@H](Cc1ccccc1)NC(=O)[C@H](CC(N)=O)NC(=O)[C@H](CC(N)=O)NC(=O)[C@H](CO)NC(=O)[C@H](CO)NC(=O)[C@H](Cc1c[nH]cn1)NC(=O)[C@H](CCCNC(=N)N)NC(=O)[C@H](CC(C)C)NC(=O)[C@H](Cc1ccccc1)NC(=O)[C@H](CCC(=O)O)NC(=O)[C@H](C)NC(=O)[C@H](CC(C)C)NC(=O)[C@H](CCCNC(=N)N)NC(=O)[C@H](CCC(N)=O)NC(=O)[C@@H](NC(=O)[C@H](C)NC(=O)[C@@H]1CSSC[C@H](NC(=O)[C@H](CCCCN)NC(=O)[C@H](CCC(=O)O)NC(=O)CC[C@H](NC(=O)CCCCCCCCCCCCCCCCCCC(=O)O)C(=O)O)C(=O)N[C@@H](CC(N)=O)C(=O)N[C@@H]([C@@H](C)O)C(=O)N[C@@H](C)C(=O)N[C@@H]([C@@H](C)O)C(=O)N1)[C@@H](C)O)C(=O)N[C@@H](CC(C)C)C(=O)N1CCC[C@H]1C(=O)N1CCC[C@H]1C(=O)N[C@H](C(=O)N[C@@H](CC(N)=O)C(=O)N[C@H](C(=O)NCC(=O)N[C@@H](CO)C(=O)N[C@@H](Cc1c[nH]cn1)C(=O)N[C@H](C(=O)N[C@@H](Cc1ccc(O)cc1)C(N)=O)[C@@H](C)O)C(C)C)[C@@H](C)O [Example 58, N-alpha-[(S)-4-Carboxy-4-(19-carboxynonadecanoylamino)butyryl]-Glu-[Glu14,Arg17,His35]-pramlintide] ({C20 diacid-γGlu}-EKCNTATCATQRLAEFLRHSSNNFGPILPPTNVGSHTY-NH2; disulfide 3-8 (inferred); C-terminus assumed) | 0.117 nM | 2.23 nM | 0.606 nM
3 | CC[C@H](C)[C@H](NC(=O)[C@@H]1CCCN1C(=O)CNC(=O)[C@H](Cc1ccccc1)NC(=O)[C@H](CC(N)=O)NC(=O)[C@H](CC(N)=O)NC(=O)[C@H](CO)NC(=O)[C@H](CO)NC(=O)[C@H](Cc1c[nH]cn1)NC(=O)[C@H](Cc1c[nH]cn1)NC(=O)[C@H](CC(C)C)NC(=O)[C@H](Cc1ccccc1)NC(=O)[C@H](CCC(=O)O)NC(=O)[C@H](C)NC(=O)[C@H](CC(C)C)NC(=O)[C@H](CCCNC(=N)N)NC(=O)[C@H](CCC(N)=O)NC(=O)[C@@H](NC(=O)[C@H](C)NC(=O)[C@@H]1CSSC[C@H](NC(=O)[C@H](CCCCN)NC(=O)CC[C@H](NC(=O)CCCCCCCCCCCCCCCCC(=O)O)C(=O)O)C(=O)N[C@@H](CC(N)=O)C(=O)N[C@@H]([C@@H](C)O)C(=O)N[C@@H](C)C(=O)N[C@@H]([C@@H](C)O)C(=O)N1)[C@@H](C)O)C(=O)N[C@@H](CC(C)C)C(=O)N1CCC[C@H]1C(=O)N1CCC[C@H]1C(=O)N[C@H](C(=O)N[C@@H](CC(N)=O)C(=O)N[C@H](C(=O)NCC(=O)N[C@@H](CO)C(=O)N[C@@H](Cc1c[nH]cn1)C(=O)N[C@H](C(=O)N[C@@H](Cc1ccc(O)cc1)C(N)=O)[C@@H](C)O)C(C)C)[C@@H](C)O [Example 59, N-alpha-[(S)-4-Carboxy-4-(17-carboxyheptadecanoylamino)butyryl]-[Glu14,His17,His35]-pramlintide] ({C18 diacid-γGlu}-KCNTATCATQRLAEFLHHSSNNFGPILPPTNVGSHTY-NH2; disulfide 2-7 (inferred)) | 0.056 nM | 0.148 nM | 0.0605 nM
4 | CC[C@H](C)[C@H](NC(=O)[C@@H]1CCCN1C(=O)CNC(=O)[C@H](Cc1ccccc1)NC(=O)[C@H](CC(N)=O)NC(=O)[C@H](CC(N)=O)NC(=O)[C@H](CO)NC(=O)[C@H](CO)NC(=O)[C@H](Cc1c[nH]cn1)NC(=O)[C@H](CCCNC(=N)N)NC(=O)[C@H](CC(C)C)NC(=O)[C@H](Cc1ccccc1)NC(=O)[C@H](CCC(=O)O)NC(=O)[C@H](C)NC(=O)[C@H](CC(C)C)NC(=O)[C@H](CCCNC(=N)N)NC(=O)[C@H](CCC(N)=O)NC(=O)[C@@H](NC(=O)[C@H](C)NC(=O)[C@@H]1CSSC[C@H](NC(=O)[C@H](CCCCN)NC(=O)CC[C@H](NC(=O)CCCCCCCCCCCCCCCCC(=O)O)C(=O)O)C(=O)N[C@@H](CC(N)=O)C(=O)N[C@@H]([C@@H](C)O)C(=O)N[C@@H](C)C(=O)N[C@@H]([C@@H](C)O)C(=O)N1)[C@@H](C)O)C(=O)N[C@@H](CC(C)C)C(=O)N1CCC[C@H]1C(=O)N1CCC[C@H]1C(=O)N[C@H](C(=O)N[C@@H](CC(N)=O)C(=O)N[C@H](C(=O)NCC(=O)N[C@@H](CO)C(=O)N[C@@H](Cc1c[nH]cn1)C(=O)N[C@H](C(=O)N[C@@H](Cc1ccc(O)cc1)C(N)=O)[C@@H](C)O)C(C)C)[C@@H](C)O [Example 61, N-alpha-[(S)-4-Carboxy-4-(17-carboxyheptadecanoylamino)butyryl]-[Glu14,Arg17,His35]-pramlintide] ({C18 diacid-γGlu}-KCNTATCATQRLAEFLRHSSNNFGPILPPTNVGSHTY-NH2; disulfide 2-7 (inferred)) | 0.0675 nM | 2.36 nM | 0.335 nM
5 | CC[C@H](C)[C@H](NC(=O)[C@@H]1CCCN1C(=O)CNC(=O)[C@H](Cc1ccccc1)NC(=O)[C@H](CC(N)=O)NC(=O)[C@H](CC(N)=O)NC(=O)[C@H](CO)NC(=O)[C@H](CO)NC(=O)[C@H](Cc1c[nH]cn1)NC(=O)[C@H](CCCNC(=N)N)NC(=O)[C@H](CC(C)C)NC(=O)[C@H](Cc1ccccc1)NC(=O)[C@H](CCC(=O)O)NC(=O)[C@H](C)NC(=O)[C@H](CC(C)C)NC(=O)[C@H](CCCNC(=N)N)NC(=O)[C@H](CCC(N)=O)NC(=O)[C@@H](NC(=O)[C@H](C)NC(=O)[C@@H]1CSSC[C@H](NC(=O)[C@H](CCCCN)NC(=O)[C@H](CCC(=O)O)NC(=O)CC[C@H](NC(=O)CCCCCCCCCCCCCCCCC(=O)O)C(=O)O)C(=O)N[C@@H](CC(N)=O)C(=O)N[C@@H]([C@@H](C)O)C(=O)N[C@@H](C)C(=O)N[C@@H]([C@@H](C)O)C(=O)N1)[C@@H](C)O)C(=O)N[C@@H](CC(C)C)C(=O)N1CCC[C@H]1C(=O)N1CCC[C@H]1C(=O)N[C@H](C(=O)N[C@@H](CC(N)=O)C(=O)N[C@H](C(=O)NCC(=O)N[C@@H](CO)C(=O)N[C@@H](Cc1c[nH]cn1)C(=O)N[C@H](C(=O)N[C@@H](Cc1ccc(O)cc1)C(N)=O)[C@@H](C)O)C(C)C)[C@@H](C)O [Example 62, N-alpha-[(S)-4-Carboxy-4-(17-carboxyheptadecanoylamino)butyryl]-Glu-[Glu14,Arg17,His35]-pramlintide] ({C18 diacid-γGlu}-EKCNTATCATQRLAEFLRHSSNNFGPILPPTNVGSHTY-NH2; disulfide 3-8 (inferred); C-terminus assumed) | 0.172 nM | 17.6 nM | 1.07 nM
